The values that follow come from patent US20110038948A1, “Methods of Reducing the Production of Reactive Oxygen Species and Methods of Screening or Identifying Compounds and Compositions that Reduce the Production of Reactive Oxygen Species” (UNIVERSITY OF TENNESSEE RESEARCH FOUNDATION, priority 2005, published 2011).

In experiment [1] the test system is fatty acid synthase. Description: Fatty acid synthase gene expression in adipocytes. It is filed as cell-based, murine. The conditions noted are these: p<0.05. The text has this:
The adipose tissue-skeletal muscle endocrine axis may play a potential role in regulating metabolic energy partitioning. […] However, the effect of leucine and calcium, in regulating this process is unclear. Accordingly, present study was designed to investigate the effect of leucine, calcitriol and calcium on energy metabolism in murine adipocytes and muscle cells.

Experiment [2] has as its system IL-6. The experiment is described as follows: IL-6 expression in RAW 264 macrophages. It is filed as cell-based. The conditions noted are these: co-culture with differentiated 3T3-L1 adipocytes. The method, then: RAW 264 macrophages and 3T3-L1 preadipocytes (American Type Culture Collection) were incubated at a density of 8000 cells/cm2 (10 cm2 dish) and grown in Dulbecco's modified Eagle's medium (DMEM) containing 10% FBS and antibiotics (adipocyte medium) at 37° C. in 5% CO2 in air. Confluent 3T3-L1 preadipocytes were induced to differentiate with a standard differentiation medium consisting of DMEM-F10 (1:1, vol/vol) medium supplemented with 1% FBS, 1 μM dexamethasone, IBMX (0.5 mM) and antibiotics (1% Penicillin-Streptomycin). Preadipocytes were maintained in this differentiation medium for 3 days and subsequently cultured in adipocyte medium. […]
Cells were washed with fresh adipocyte medium, re-fed with medium containing the indicated treatments, and incubated at 37° C. in 5% CO2 for 48 hours before analysis. Cell viability was measured via trypan blue exclusion.
Human adipocytes (Zen-Bio, Inc.), 3T3-L1 adipocytes, RAW264 macrophages were obtained and co-cultured by using transwell inserts with 0.4 μm porous membranes (Corning) to separate adipocytes and macrophages. All data are expressed as mean±SEM. Data were evaluated for statistical significance by analysis of one-way or two-way variance (ANOVA; means with different letter differ, p<0.05). […]

In experiment [3] the test system is C2C12 myotubes. The experiment is described as follows: IL-15 release by myotubes (ELISA). It counts as cell-based, murine. The conditions noted are these: C2C12 myotubes, 48 hours. The method, then:
IL-15 release in the medium was determined using ELISA. Data are corrected for DNA content. Values are presented as mean±SEM, n=6. Means with different letter differ with p<0.05.

Experiment [4] deals with NADPH oxidase. Description: NADPH oxidase expression in cultured adipocytes. It counts as cell-based, mouse. The conditions noted are these: glucose 30 mmol/L alone or plus compound, 48 hours. The method, then: 3T3-L1 preadipocytes were incubated at a density of 8000 cells/cm^2 (10 cm^2 dish) and grown in Dulbecco's modified Eagle's medium (DMEM) containing 10% FBS and antibiotics (adipocyte medium) at 37° C. in 5% CO2 in air. Confluent preadipocytes were induced to differentiate with a standard differentiation medium consisting of DMEM-F10 (1:1, vol/vol) medium supplemented with 1% FBS, 1 μM dexamethasone, IBMX (0.5 mM) and antibiotics (1% Penicillin-Streptomycin). Preadipocytes were maintained in this differentiation medium for 3 days and subsequently cultured in adipocyte medium. Cultures were re-fed every 2-3 days to allow 90% of cells to reach full differentiation before conducting chemical treatment. Chemicals were freshly diluted in adipocyte medium before treatment. Cells were washed with fresh adipocyte medium, re-fed with medium containing the different treatments, and incubated at 37° C. in 5% CO2 in air before analysis. Cell viability was measured via trypan blue exclusion. Adipocyte 18s, cyclin A, NADPH oxidase, and UCP2 were quantitatively measured using a Smart Cycler Real Time PCR System (Cepheid, Sunnyvale, Calif.) with a TaqMan 1000 Core Reagent Kit (Applied Biosystems, Branchburg, N.J.). The primers and probe sets were ordered from Applied Biosystems TaqMan® Assays-on-Demand™ Gene Expression primers and probe set collection according to manufacture's instruction. Pooled adipocyte total RNA was serial-diluted in the range of 1.5625-25 ng and used to establish a standard curve; total RNAs for unknown samples were also diluted in this range. Reactions of quantitative RT-PCR for standards and unknown samples were also performed according to the instructions of Smart Cycler System (Cepheid, Sunnyvale, Calif.) and TaqMan Real Time PCR Core Kit (Applied Biosystems, Branchburg, N.J.). The mRNA quantitation for each sample was further normalized using the corresponding 18s quantitation.

Experiment [5] deals with 3T3-L1 adipocytes. Description: Intracellular ROS generation in cultured adipocytes (H2-DCFDA). It is filed as cell-based, mouse. The conditions noted are these: compound plus glucose 30 mmol/L, 48 hours. Here is the method: 3T3-L1 preadipocytes were incubated at a density of 8000 cells/cm^2 (10 cm^2 dish) and grown in Dulbecco's modified Eagle's medium (DMEM) containing 10% FBS and antibiotics (adipocyte medium) at 37° C. in 5% CO2 in air. Confluent preadipocytes were induced to differentiate with a standard differentiation medium consisting of DMEM-F10 (1:1, vol/vol) medium supplemented with 1% FBS, 1 μM dexamethasone, IBMX (0.5 mM) and antibiotics (1% Penicillin-Streptomycin). Preadipocytes were maintained in this differentiation medium for 3 days and subsequently cultured in adipocyte medium. Cultures were re-fed every 2-3 days to allow 90% of cells to reach full differentiation before conducting chemical treatment. Chemicals were freshly diluted in adipocyte medium before treatment. Cells were washed with fresh adipocyte medium, re-fed with medium containing the different treatments, and incubated at 37° C. in 5% CO2 in air before analysis. Cell viability was measured via trypan blue exclusion. […] Cells were loaded with H2-DCFDA (2 μmol/L) 30 minute before the end of the incubation period (48 h). After washing twice with PBS, cells were scraped and disrupted by sonication on ice (20 s). Fluorescence (emission 543 nm or 527 nm) and DNA content were then measured as described previously. The intensity of fluorescence was expressed as arbitrary units per ng DNA.

SMILES strings stand for the structures.

Turning to `C=C1/C(=C\C=C2/CCC[C@]3(C)[C@@H]([C@H](C)CCCC(C)(C)O)CC[C@@H]23)C[C@@H](O)C[C@@H]1O` [calcitriol, 1,25-(OH)2-D3], the “increase in adipocyte FAS gene expression” value in experiment [1] is listed as 3 fold. Moreover, in experiment [2], the “effect on IL-6 expression in macrophages” value was “further enhanced”. The “effect on IL-15 release” value in experiment [3] is listed as “inhibitory effects”. For the same compound, the “effect on NADPH oxidase expression” value in experiment [4] is “stimulated”. In addition, the “effect on high glucose induced ROS production” value in experiment [5] is given as “greater stimulation of ROS production than either glucose alone or glucose plus GDP”.
